A word on the IC50: it is the midpoint of a concentration-inhibition curve.

This experiment relates to MEK. The experiment is described as follows: Cellular Assay for Measuring MEK Inhibition (inhibition of ERK phosphorylation in C26 cells, Western blot). In kind it is cell-based, murine. Particulars: for IC50: inhibition of ERK phosphorylation in murine colon 26 (C26) carcinoma cells, determined graphically from dose response curve; for % Inhibition @ 0.1 μM / % Inhibition @ 1 μM / % Inhibition @ 10 μM: ERK phosphorylation in C26 cells. As for the experimental part: The evaluation of the compounds as MEK inhibitors was performed in an assay that measures their ability to inhibit phosphorylation of MAP kinase […]) in murine colon 26 (C26) carcinoma cells. Since ERK1 and ERK2 represent the only known substrates for MEK, measurement of inhibition of ERK phosphorylation in cells provides direct readout of cellular MEK inhibition by the compounds of the invention. Briefly, the assay involves treating exponentially growing C26 cells with varying concentrations of the test compound (or vehicle control) for […] at 37° C. Cells are then rinsed free of compound/vehicle and lysed in a solution containing 70 mM NaCl, 50 mM glycerol phosphate, 10 mM HEPES, pH 7.4, 1% Triton X-100, 1 mM Na3VO4, 100 μM PMSF, 10 μM leupeptin and 10 μM pepstatin. Supernatants are then subjected to gel electrophoresis and Western blotting using a primary antibody recognizing dually phosphorylated ERK1 and ERK2. To evaluate total MAPK levels, blots were subsequently ‘stripped’ and re-probed with a 1:1 mixture of polyclonal antibodies recognizing unphosphorylated ERK1 and ERK2.

`O=C(NOCC(O)COc1ccccc1)c1cc(F)c(F)cc1Nc1ccc(I)cc1F` (stereo not drawn) [Example 193, 4,5-Difluoro-2-(2-fluoro-4-iodo-phenylamino)-N-(2-hydroxy-3-phenoxy-propoxy)-benzamide] came in with a 50% inhibitory concentration (IC50) of 10 nM. In the case of `Cc1cc(I)ccc1Nc1c(C(=O)NOCCC(O)CO)cc(Br)c(F)c1F` (stereo not drawn) [Example 97, 5-Bromo-N-(3,4-dihydroxy-butoxy)-3,4-difluoro-2-(4-iodo-2-methyl-phenylamino)-benzamide], the “% Inhibition @ 0.1 μM” value was determined as 30.1% and the “% Inhibition @ 1 μM” value came to 91.9%. In turn, `CC(C)(O)CONC(=O)c1cc(Br)c(F)c(F)c1Nc1ccc(I)cc1Cl` [Example 173, 5-Bromo-2-(2-chloro-4-iodo-phenylamino)-3,4-difluoro-N-(2-hydroxy-2-methyl-propoxy)-benzamide] displayed a half-maximal inhibitory concentration (IC50) of 300 nM. Turning to `Cc1cc(I)ccc1Nc1c(C(=O)NOCC(O)CN2CCOCC2)ccc(F)c1F` (stereo not drawn) [Example 148, 3,4-Difluoro-N-(2-hydroxy-3-morpholin-4-yl-propoxy)-2-(4-iodo-2-methyl-phenylamino)-benzamide], the IC50 is 230 nM.

`O=C(NOCC(O)CN1CCOCC1)c1ccc(F)c(F)c1Nc1ccc(I)cc1F` (stereo not drawn) [Example 151, 3,4-Difluoro-2-(2-fluoro-4-iodo-phenylamino)-N-(2-hydroxy-3-morpholin-4-yl-propoxy)-benzamide] returned a half-maximal inhibitory concentration (IC50) of 41 nM.

As for `O=C(NOCC(O)C(F)(F)F)c1cc(F)c(F)c(F)c1Nc1ccc(I)cc1F` (stereo not drawn) [Example 210, 3,4,5-Trifluoro-2-(2-fluoro-4-iodo-phenylamino)-N-(3,3,3-trifluoro-2-hydroxy-propoxy)-benzamide], the “% Inhibition @ 0.1 μM” value is 79.7% and the “% Inhibition @ 1 μM” value is recorded as 99.2%.

Consider `O=C(NOCC(O)C(F)(F)F)c1ccc(F)c(F)c1Nc1ccc(Cl)cc1F` (stereo not drawn) [Example 213, 2-(4-Chloro-2-fluoro-phenylamino)-3,4-difluoro-N-(3,3,3-trifluoro-2-hydroxy-propoxy)-benzamide], for which the “% Inhibition @ 0.1 μM” value amounted to 6.2% and the “% Inhibition @ 1 μM” value is on record as 78.7%. Taken in the same sequence, the figures for `CCC(O)CONC(=O)c1cc(Br)c(F)c(F)c1Nc1ccc(I)cc1F` (stereo not drawn) [Example 113, 5-Bromo-3,4-difluoro-2-(2-fluoro-4-iodo-phenylamino)-N-(2-hydroxy-butoxy)-benzamide] were 89.9% and 94.6%. For the molecule `O=C(NOC[C@H](O)CO)c1cc(Cl)c(F)c(F)c1Nc1ccc(I)cc1F` [Example 53], half-maximal inhibition (IC50) required 1.2 nM. Turning to `CCC(O)CONC(=O)c1ccc(F)c(F)c1Nc1ccc(F)cc1F` (stereo not drawn) [Example 117, 2-(2,4-Difluoro-phenylamino)-3,4-difluoro-N-(2-hydroxy-butoxy)-benzamide], the “% Inhibition @ 0.1 μM” value is listed as 0%, the “% Inhibition @ 1 μM” value turned out to be 66.7% and the “% Inhibition @ 10 μM” value was determined as 86.9%.

On to `CC(CO)ONC(=O)c1cc(F)c(F)cc1Nc1ccc(I)cc1F` (stereo not drawn) [Example 131, 4,5-Difluoro-2-(2-fluoro-4-iodo-phenylamino)-N-(2-hydroxy-1-methyl-ethoxy)-benzamide], for which the “% Inhibition @ 0.1 μM” value came to 78.7% and the “% Inhibition @ 1 μM” value stood at 91.3%. On the same counts, the results for `O=C(NOCC1CC1CO)c1ccc(F)c(F)c1Nc1ccc(Cl)cc1F` (stereo not drawn) [Example 216, 2-(4-Chloro-2-fluoro-phenylamino)-3,4-difluoro-N-(2-hydroxymethyl-cyclopropylmethoxy)-benzamide] are 41.2% and 87.6%.

For `CCC(O)CONC(=O)c1ccc(F)c(F)c1Nc1ccc(Br)cc1F` (stereo not drawn) [Example 118, 2-(4-Bromo-2-fluoro-phenylamino)-3,4-difluoro-N-(2-hydroxy-butoxy)-benzamide], the “% Inhibition @ 0.1 μM” value was determined as 74.6% and the “% Inhibition @ 1 μM” value is on record as 95.6%. Consider `Cc1cc(I)ccc1Nc1c(C(=O)NOC(C)CO)ccc(F)c1F` (stereo not drawn) [Example 126, 3,4-Difluoro-N-(2-hydroxy-1-methyl-ethoxy)-2-(4-iodo-2-methyl-phenylamino)-benzamide], for which the IC50 turned out to be 26 nM.

As to `O=C(NOCCNc1ccccc1)c1cc(F)c(F)c(F)c1Nc1ccc(I)cc1Cl` [Example 233, 2-(2-Chloro-4-iodo-phenylamino)-3,4,5-trifluoro-N-(2-phenylamino-ethoxy)-benzamide], the IC50 was 33 nM. On the same count and under the same terms, the figure for `Cc1cc(I)ccc1Nc1c(C(=O)NOCC(O)CO)cc(F)c(F)c1F` (stereo not drawn) [Example 90, N-(2,3-Dihydroxy-propoxy)-3,4,5-trifluoro-2-(4-iodo-2-methyl-phenylamino)-benzamide] is 40 nM. Consider `O=C(NOCC(O)COc1ccccc1)c1ccc(F)c(F)c1Nc1ccc(Cl)cc1F` (stereo not drawn) [Example 196, 2-(4-Chloro-2-fluoro-phenylamino)-3,4-difluoro-N-(2-hydroxy-3-phenoxy-propoxy)-benzamide], for which the “% Inhibition @ 0.1 μM” value stood at 10.2% and the “% Inhibition @ 1 μM” value worked out at 82.8%.

`Cc1cc(I)ccc1Nc1c(C(=O)NOC(C)CO)cc(F)c(F)c1F` (stereo not drawn) [Example 122, 3,4,5-Trifluoro-N-(2-hydroxy-1-methyl-ethoxy)-2-(4-iodo-2-methyl-phenylamino)-benzamide]: the “% Inhibition @ 0.1 μM” value amounted to 49.6% and the “% Inhibition @ 1 μM” value was found to be 87.3%.

`Cc1cc(I)ccc1Nc1c(C(=O)NOCC(C)(C)CO)cc(Cl)c(F)c1F` [Example 201, 5-Chloro-3,4-difluoro-N-(3-hydroxy-2,2-dimethyl-propoxy)-2-(4-iodo-2-methyl-phenylamino)-benzamide] showed an IC50 of 100 nM. Turning to `COCC(O)CONC(=O)c1ccc(F)c(F)c1Nc1ccc(Br)cc1F` (stereo not drawn) [Example 228, 2-(4-Bromo-2-fluoro-phenylamino)-3,4-difluoro-N-(2-hydroxy-3-methoxy-propoxy)-benzamide], the “% Inhibition @ 0.1 μM” value stood at 48.6% and the “% Inhibition @ 1 μM” value is recorded as 92.4%. In the case of `COCC(O)CONC(=O)c1cc(Cl)c(F)c(F)c1Nc1ccc(F)cc1F` (stereo not drawn) [Example 227, 5-Chloro-2-(2,4-difluoro-phenylamino)-3,4-difluoro-N-(2-hydroxy-3-methoxy-propoxy)-benzamide], the “% Inhibition @ 1 μM” value stood at 24.2% and the “% Inhibition @ 10 μM” value is recorded as 63%. `O=C(NOCC1(CO)CC1)c1cc(Cl)c(F)c(F)c1Nc1ccc(F)cc1F` [Example 225, 5-Chloro-2-(2,4-difluoro-phenylamino)-3,4-difluoro-N-(1-hydroxymethyl-cyclopropylmethoxy)-benzamide]: the “% Inhibition @ 0.1 μM” value is 0%, the “% Inhibition @ 1 μM” value was found to be 8.7% and the “% Inhibition @ 10 μM” value was determined as 36.9%. As to `CC(CO)ONC(=O)c1ccc(F)c(F)c1Nc1ccc(Cl)cc1F` (stereo not drawn) [Example 125, 2-(4-Chloro-2-fluoro-phenylamino)-3,4-difluoro-N-(2-hydroxy-1-methyl-ethoxy)-benzamide], the “% Inhibition @ 0.1 μM” value is 9.1% and the “% Inhibition @ 1 μM” value was 89%. Molecule `O=C(NOCCO)c1ccc(F)cc1Nc1ccc(I)cc1Cl` [Example 4, 2-(2-Chloro-4-iodo-phenylamino)-4-fluoro-N-(2-hydroxy-ethoxy)-benzamide] showed an IC50 of 2 nM. Still for that read-out and setting: the figure for `O=C(NOCCCO)c1ccc(F)c(F)c1Nc1ccc(I)cc1Cl` [Example 99, 2-(2-Chloro-4-iodo-phenylamino)-3,4-difluoro-N-(3-hydroxy-propoxy)-benzamide] is 18 nM.

Regarding `Cc1cc(I)ccc1Nc1c(C(=O)NOCC(C)(C)O)cc(F)c(F)c1F` [Example 171, 3,4,5-Trifluoro-N-(2-hydroxy-2-methyl-propoxy)-2-(4-iodo-2-methyl-phenylamino)-benzamide], the “% Inhibition @ 0.1 μM” value is recorded as 35.6% and the “% Inhibition @ 1 μM” value is recorded as 94.6%.

In the case of `CCC(O)CONC(=O)c1cc(F)c(F)c(F)c1Nc1ccc(I)cc1Cl` (stereo not drawn) [Example 105, 2-(2-Chloro-4-iodo-phenylamino)-3,4,5-trifluoro-N-(2-hydroxy-butoxy)-benzamide], the “% Inhibition @ 0.1 μM” value is on record as 3.3% and the “% Inhibition @ 1 μM” value is listed as 71.3%. As for `CC(CO)ONC(=O)c1ccc(F)c(F)c1Nc1ccc(I)cc1Cl` (stereo not drawn) [Example 120, 2-(2-Chloro-4-iodo-phenylamino)-3,4-difluoro-N-(2-hydroxy-1-methyl-ethoxy)-benzamide], the IC50 came to 14 nM.

Turning to `CC(CO)ONC(=O)c1cc(F)c(F)c(F)c1Nc1ccc(I)cc1Cl` (stereo not drawn) [Example 121, 2-(2-Chloro-4-iodo-phenylamino)-3,4,5-trifluoro-N-(2-hydroxy-1-methyl-ethoxy)-benzamide], the “% Inhibition @ 0.1 μM” value is 46.9% and the “% Inhibition @ 1 μM” value amounted to 85.5%.

For the molecule `CC(C)(O)CONC(=O)c1cc(Cl)c(F)c(F)c1Nc1ccc(F)cc1F` [Example 180, 5-Chloro-2-(2,4-difluoro-phenylamino)-3,4-difluoro-N-(2-hydroxy-2-methyl-propoxy)-benzamide], the “% Inhibition @ 1 μM” value is 34% and the “% Inhibition @ 10 μM” value was determined as 58.6%. For `Cc1cc(I)ccc1Nc1c(C(=O)NOCC(C)O)cc(F)c(F)c1F` (stereo not drawn) [Example 157, 3,4,5-Trifluoro-N-(2-hydroxy-propoxy)-2-(4-iodo-2-methyl-phenylamino)-benzamide], the “% Inhibition @ 0.1 μM” value amounted to 50.7% and the “% Inhibition @ 1 μM” value turned out to be 91.5%.

As to `COCC(O)CONC(=O)c1ccc(F)c(F)c1Nc1ccc(Cl)cc1F` (stereo not drawn) [Example 229, 2-(4-Chloro-2-fluoro-phenylamino)-3,4-difluoro-N-(2-hydroxy-3-methoxy-propoxy)-benzamide], the “% Inhibition @ 0.1 μM” value is 9.8% and the “% Inhibition @ 1 μM” value is on record as 76.5%.

The values above are taken from patent US6960614B2, “Oxygenated esters of 4-lodo phenylamino benzhydroxamic acids” (Warner-Lambert Company, priority 2000, dated 2005).
